Data: patent publication EP4772509A1, “KINESIN KIF18A INHIBITOR, AND APPLICATION THEREOF” (Shanghai Apeiron Therapeutics Company Limited, priority 2023, dated 2025)
Like-named read-outs stand apart in the source and are kept apart here.

How the values were obtained:
[1] = target: T1, Human KIF18A (amino acid sequence 1-417) (Homo sapiens, UniProt Q8NI77); test: Enzymatic activity test (ADP-Glo, microtubule-stimulated ATPase); assay type: biochemical; conditions: 60 µg/mL microtubules, 25 µM ATP, 2.5 nM KIF18A protein, 120 min at ambient temperature, chemiluminescence; read-out: KIF18A IC50
T1 construct: purchased Viva Biotech (Shanghai) Ltd
T1 sequence (Q8NI77 1-417): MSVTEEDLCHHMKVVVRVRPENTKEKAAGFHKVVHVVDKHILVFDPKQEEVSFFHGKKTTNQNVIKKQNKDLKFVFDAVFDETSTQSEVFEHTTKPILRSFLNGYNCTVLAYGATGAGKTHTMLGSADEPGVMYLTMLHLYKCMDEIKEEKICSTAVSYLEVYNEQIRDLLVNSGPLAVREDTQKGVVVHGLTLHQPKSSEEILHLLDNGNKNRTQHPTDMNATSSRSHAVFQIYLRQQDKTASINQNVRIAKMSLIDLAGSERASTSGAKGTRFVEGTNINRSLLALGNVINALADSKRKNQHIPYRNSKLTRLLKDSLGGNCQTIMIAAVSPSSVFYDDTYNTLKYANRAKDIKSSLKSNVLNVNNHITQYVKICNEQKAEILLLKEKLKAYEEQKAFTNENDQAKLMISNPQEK
Summary of the method: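 Compounds (0-10 µM final, from 10 mM DMSO stock) were incubated 120 min at room temperature with 2.5 nM KIF18A 1-417, 25 µM ATP and 60 µg/mL microtubules. ATPase output was measured as ADP via ADP-Glo luminescence.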

[2] = system: OVCAR3 cells; test: Cell proliferation activity test (CyQUANT Direct); assay type: cell-based; conditions: 3 days, 0.2% DMSO, CyQUANT fluorescence
Summary of the method: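 OVCAR3 cells in RPMI-1640 with 10% FBS were seeded, then treated overnight later with compound at final 0–10 µM (0.2% DMSO) for 3 days at 37°C, 5% CO2. Proliferation was read as CyQUANT Direct fluorescence after 60 min at 37°C.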

[3] = system: HT29 cells; test: CyQuant cell proliferation activity test; assay type: cell-based; conditions: HT29 at 2000 cells per well, 3 days, 0.2% DMSO, XLFIT
Experimental: Materials and Cells: HT29 cells were purchased from Nanjing Cobioer Biosciences Co., Ltd.; RPMI-1640 medium, fetal bovine serum, Trypsin-EDTA (0.25%), 96-well plates, and CyQuant reagents were purchased from ThermoFisher (USA); DMSO was purchased from SIGMA (USA).
Cell Culture: HT29 cells were cultured with RPMI-1640 containing 10% fetal bovine serum under the condition of 37°C and 5% CO2. Only cells in the logarithmic growth phase could be used for the test.
Cell Proliferation Activity Test: CyQuant reagent was used to detect the proliferation inhibitory activity of compounds on HT29 cells. The cell density was adjusted, and 100 µL per well was inoculated into a 96-well plate (HT29 at 2000 cells per well), then incubated overnight at 37°C and 5% CO2. Add compounds of various target concentrations (initial concentration of 3000 nM, 3-fold dilution, 9 concentration gradients), and make the DMSO content 0.2%. The cell plate was incubated at 37°C in 5% CO2 for 3 days. CyQuant reagent was added and incubated for 1 h. The plates were read by Envision, and IC50 was calculated using XLFIT.

SMILES	IC50 [1]	IC50 [2]	IC50 ([3]; read-out: HT-29 IC50)	IC50 ([2]; Homo sapiens, OVCAR-3, 72 h)	IC50 ([3]; Homo sapiens, HT-29, 72 h)
COc1cc2nc(n1)N1CCC(F)(F)C(CCCc3ccc(cc3)-c3cc(NS(=O)(=O)CCO)ccc3C(=O)N2)C1 (single isomer, unassigned) [Example 51B, N-(1^4,1^4-difluoro-2^6-methoxy-4-oxo-3-aza-2(2,4)-pyrimidin-1(1,3)-piperidin-5(1,2),6(1,4)-dibenzylcyclononane-5^4-yl)-2-hydroxyethane-1-sulfonamide]	0.144 µM	0.072 µM	0.074 µM	–	–
Cc1cc2nc(n1)N1CCC(F)(F)C(/C=C\CC3CCN(CC3)c3cc(NS(=O)(=O)CCO)c4ccccc4c3C(=O)N2)C1 (single isomer, unassigned) [Example 1A, (cis)-N-(1^4,1^4-difluoro-2^6-methyl-4-oxo-3-aza-2(2,4)-pyrimidin-1(1,3),6(1,4)-dipiperidin-5(1,2)-naphthacyclonon-8-en-5^4-yl)-2-hydroxyethane-1-sulfonamide]	> 3 µM	2.79 µM	2.79 µM	–	–
Cc1cc2nc(n1)N1CCC(F)(F)C(C=CCC3CCN(CC3)c3cc(NS(=O)(=O)CCO)c4c(c3C(=O)N2)CCC4=O)C1 (single isomer, unassigned) [Example 2A, N-(1^4,1^4-difluoro-2^6-methyl-5^1,4-dioxo-5^2,5^3-dihydro-5^1H-3-aza-2(2,4)-pyrimidin-1(1,3),6(1,4)-dipiperidin-5(4,5)-indenoheterocyclonon-8-en-5^7-yl)-2-hydroxyethane-1-sulfonamide]	0.035 µM	0.008 µM	0.009 µM	–	–
Cc1cc2nc(n1)N1CCC(F)(F)C(C=CCC3CCN(CC3)c3cc(NS(=O)(=O)CCO)c4c(c3C(=O)N2)CNC4=O)C1 (stereo not drawn) [Example 16, N-(6^4,6^4-difluoro-5^6-methyl-2^1,3-dioxo-2^2,2^3-dihydro-2^1H-4-aza-2(5,4)-isoindole-5(4,2)-pyrimidin-1(1,4),6(1,3)-dipiperidineheterocyclonon-7-en-2^7-yl)-2-hydroxyethane-1-sulfonamide]	0.045 µM	0.089 µM	0.095 µM	–	–
Cc1cc2nc(n1)N1CCC(F)(F)C(CCCc3ccn(c(=O)c3)-c3cc(NS(=O)(=O)CCO)ccc3C(=O)N2)C1 (stereo not drawn) [Example 52, N-(1^4,1^4-difluoro-2^6-methyl-6^2,4-dioxo-6^1,6^2-dihydro-3-aza-2(2,4)-pyrimidin-6(1,4)-pyridin-1(1,3)-piperidin-5(1,2)-phenylheterocyclononane-5^4-yl)-2-hydroxyethane-1-sulfonamide]	0.555 µM	–	–	> 3 µM	> 3 µM
CON(C)C(=O)c1cc2c(cc1NS(=O)(=O)CCO)N1CCC(C/C=C/C3CN(CCC3(F)F)c3nc(C)cc(n3)-c3cn-2nn3)CC1 (stereo not drawn) [Example 90, (3^4Z,7E)-1^4,1^4-difluoro-4^4-((2-hydroxyethyl)sulfonamido)-N-methoxy-N,2^6-dimethyl-3^1H-2(2,4)-pyrimidin-1(1,3),5(1,4) -dipiperidin-3(4,1)-triazole-4(1,2)-benzocyclooct-7-en-45-carboxamide]	0.274 µM	–	–	0.136 µM	0.333 µM
COC(=O)c1cc2c(cc1NS(=O)(=O)CCO)N1CCC(C/C=C/C3CN(CCC3(F)F)c3nc(C)cc(n3)-c3cn-2nn3)CC1 (stereo not drawn) [Example 92A, methyl(3^4Z,7E)-1^4,1^4-difluoro-4^4-((2-hydroxyethyl)sulfonamido)-2^6-methyl 3^1H-2(2,4)-pyrimidin-1(1,3),5(1,4)-dipiperidin-3(4,1)-triazole-4(1,2)-benzocyclooct-7-en-4^5carboxylate]	0.427 µM	–	–	0.141 µM	0.154 µM
COc1cc2nc(n1)N1CCC(F)(F)C(CCCc3ccc(cc3)-c3cc(NS(=O)(=O)CCO)ncc3C(=O)N2)C1 (single isomer, unassigned) [Example 56B, N-(1^4,1^4-difluoro-2^6-methoxy-4-oxo-3-aza-2(2,4)-pyrimidin-5(3,4)-pyridin-1(1,3)-piperidin-6(1,4)-benzoazacyclononane-5^6-yl)-2-hydroxyethane-1-sulfonamide]	0.009 µM	0.112 µM	0.192 µM	–	–
Cc1cc2nc(n1)N1CCC(F)(F)C(C=CCC3CCN(CC3)c3cc(NS(=O)(=O)CCO)c4c(c3C(=O)N2)CCC4=O)C1 (single isomer, unassigned) [Example 2D, N-(1^4,1^4-difluoro-2^6-methyl-5^1,4-dioxo-5^2,5^3-dihydro-5^1H-3-aza-2(2,4)-pyrimidin-1(1,3),6(1,4)-dipiperidin-5(4,5)-indenoheterocyclonon-8-en-5^7-yl)-2-hydroxyethane-1-sulfonamide]	0.546 µM	0.679 µM	0.679 µM	–	–
Cn1c2nc(cc1=O)NC(=O)c1c(cc(NS(=O)(=O)CCO)c3c1CCC3=O)N1CCC(C/C=C\C3CN2CCC3(F)F)CC1 (stereo not drawn) [Example 9, N-(11,11-difluoro-6-methyl-1,5,22-trioxo-1,5,6,9,10,11,12,15,16,17,18,22,23,24-tetradecahydro-2H-3,7-(azanediyl)-16, 19-ethano-8,12-methyleneindeno[4,5-i] [1,3,7,11]tetraazacyclohenicosan-21-yl)-2-hydroxyethane-1-sulfonamide]	0.264 µM	–	–	1.06 µM	1.02 µM
Cc1cc2nc(n1)N1CCC(F)(F)C(/C=C\CC3CCN(CC3)c3cc(NS(=O)(=O)C(C)(C)CO)c4c(c3C(=O)N2)CCC4=O)C1 (stereo not drawn) [Example 12, (Z)-N-(1^4,1^4-difluoro-2^6-methyl-5^1,4-dioxo-5^2,5^3-dihydro-5^1hydro-3-aza-2(2,4)-pyrimidin-1(1,3),6(1,4)-dipiperidin-5(4, 5)-indenocyclonofin-8-en-5^7-yl)-1-hydroxy-2-methylpropane-2-sulfonamide]	0.172 µM	–	–	0.096 µM	0.165 µM
Cc1cc2nc(n1)N1CCC(F)(F)C(/C=C/CC3CCN(CC3)c3cc(NS(=O)(=O)CCO)c4ccccc4c3C(=O)N2)C1 (single isomer, unassigned) [Example 1C, (trans)-N-(1^4,1^4-difluoro-2^6-methyl-4-oxo-3-aza-2(2,4)-pyrimidin-1(1,3),6(1,4)-dipiperidin-5(1,2)-naphthacyclonon-8-en-5 ^4-yl)-2-hydroxyethane-1-sulfonamide]	1.06 µM	1.02 µM	1.02 µM	–	–
Cc1cc2nc(n1)N1CCC(F)(F)C(/C=C/CC3CCN(CC3)c3cc(NS(=O)(=O)CCO)c4ccccc4c3C(=O)N2)C1 (single isomer, unassigned) [Example 1D, (trans)-N-(1^4,1^4-difluoro-2^6-methyl-4-oxo-3-aza-2(2,4)-pyrimidin-1(1,3),6(1,4)-dipiperidin-5(1,2)-naphthacyclonon-8-en-5 ^4-yl)-2-hydroxyethane-1-sulfonamide]	0.211 µM	0.137 µM	0.137 µM	–	–
Cc1cc2nc(n1)N1CCC(F)(F)C(C=CCC3CCN(CC3)c3cc(NS(C)(=O)=O)c4c(c3C(=O)N2)CCC4=O)C1 (stereo not drawn) [Example 19, N-(1^4,1^4-difluoro-2^6-methyl-5^1,4-dioxo-5^2,5^3-dihydro-5^1H-3-aza-2(2,4)-pyrimidin-1(1,3),6(1,4)-dipiperidin-5(4,5)-indenoheterocyclonon-8-en-5^7-yl)-methanesulfonamide]	0.073 µM	0.052 µM	0.048 µM	–	–
